Assay results: patent US20160160189A1, “Truncated Constructs of RIPK3 and Related Uses” (ST. JUDE CHILDREN'S RESEARCH HOSPITAL, priority 2013, published 2016)

Columns and labels:
[1] = test system: NIH-3T3 cells stably expressing RIPK3-1xFv; assay: TNF-induced necroptosis, IncuCyte imaging; type: cell-based, murine; details: TNF plus caspase inhibitor zVAD
Procedure: Expression of RIPK3-1xFv sensitized these cells to necroptosis induced by the combination of TNF and a caspase inhibitor (zVAD) in a manner analogous to that observed in Jax cells, a murine fibroblast line that expresses endogenous RIPK3. See, FIG. 13C. […]
Resulting images were analyzed using the software package supplied with the IncuCyte imager, which allows precise analysis of the number of Sytox Green or Yoyo-3 positive cells present in each image. For each experiment, a minimum of three separate wells were treated with each experimental condition, and a minimum of 4 image fields were assessed per well. Percent cell death was calculated by treating a minimum of three distinct wells in each experiment with 100 nM of the cell permeable fluorescent dye Syto Green (S7559), which allows quantification of the total number of cells present in each field. […]

RIPK3 complexes = assay: DSS crosslinking of necrosome complexes resolved by western blotting; type: cell-based, murine; details: DSS crosslinking, western blot
Procedure: A confluent monolayer of the indicated cells was incubated with the appropriate treatment for 30 minutes at 37 degrees. Cells were lysed in a modified, Tris-free NP40 buffer (30 mM HEPES pH 7.4, 150 mM NaCl, and 1% NP40) without protease inhibitors. Protein lysate was quantified according to standard BCA assay (Pierce) and fifty micrograms of each sample was treated with 0.1 mM DSS crosslinking agent (Thermo Scientific, #21658) for 30 minutes at room temperature; the reaction was quenched by the addition of Tris-HCl pH 7.2 to a final concentration of 50 mM for 15 minutes. Crosslinked samples were analyzed by Western blot as described above, using the anti-2A primary antibody for detection.

wild type FKBP = wild type FKBP (Homo sapiens, UniProt P62942); details: relative to Phe36Val FKBP; cited from earlier work
[2] = compared with AP1510; cited from earlier work
[3] = biological target: FKBPs with a single amino acid substitution, Phe36Val (Fv) (Homo sapiens, UniProt P62942, F37V); details: FKBP Phe36Val (Fv); cited from earlier work
cells = details: cited from earlier work
mice [4] = details: delivered intravenously; cited from earlier work
[5] = test system: NIH-3T3 cells stably expressing RIPK3-1xFv; assay: AP1-induced RIPK3 dimerization cell death, IncuCyte imaging; type: cell-based, murine; details: AP1 alone, absence of TNF; depended on AP1 concentration
Excerpt: Fv domains rapidly dimerize in response to AP1 treatment that facilitated an investigation of the protein-protein interactions involved in RIPK3 activation and necroptosis (27a). For example, an Fv domain was appended to a C-terminus of RIPK3, that is adjacent to the RHIM domain, in an effort to mimic in situ RHIM-dependent interactions that define RIPK3 activation. RIPK3-1xFv was expressed in NIH-3T3 cells, a cell line that lacks endogenous RIPK3 expression and is therefore unresponsive to TNF-induced necroptosis. See, FIGS. 13A and 13B. Cell death responses of NIH-3T3 cells were quantified by construct expression over time using the IncuCyte imaging system, which allows precise quantification of cell death with high temporal resolution. For example, representative images were acquired from an IncuCyte Imager (data not shown). These images were NIH-3T3 cells stably expressing RIPK3-1xFV, treated with 10 nM AP1 (see FIG. 1B for a quantified graphical representation of this cell death). One set of images show a field of these cells undergoing RIPK3-dependent cell death; the media contains the cell impermeable DNA binding dye Sytox Green, which marks cells that have lost membrane integrity in green. Another set of images depicts the same image set, following analysis by the IncuCyte software package. This software counts each green (dead) cell in each image; counted cells are surrounded by purple halos. Each trace shown in this manuscript depicts data averaged from at least 3 independently treated wells of cells, each of which is imaged in at least 4 separate fields. Each experiment shown is representative of at least 3 separate replicates. All experiments on stably transduced cells is representative of at least three separate replicates performed on each of at least two distinct, independently-derived stable lines.
In the examples below, the following compounds were used: Recombinant murine TNF (Peprotech 315-01A) was used at 1 ng/ml unless otherwise specified; AP1 (Now commercialized by Clontech as “B/B Homodimerizer,” catalog #635059) was dissolved in ethanol to a concentration of 100 μM, then diluted in culture media to a final concentration of 30 nM unless otherwise indicated. zVAD (SM 13 Biochemicals SMFMK001) was dissolved in DMSO to a concentration of 50 mM, then diluted to 50 μM in culture media; Necrostatin-1(Sigma N9037-10MG) was dissolved in DMSO to a concentration of 30 mM, then diluted to 30 μM in culture media; TNFR-Fc (Fisher 430-RI-050) was used at a final concentration of 200 ng/ml; Shield drug was a kind gift of Dr. Tom Wandless and was used at a final concentration of 1 μM. SiGenome SMARTpool siRNAs were purchased from Dharmacon/Fisher. Pools targeting murine MLKL(M-061420-01), murine RIPK1 (M-040150-01), and murine caspase-8 (M-043044-01), as well as a non-targeting “scramble” pool(D-001206-14), were used. Two microliters of a 50 μM stock of these siRNAs were delivered to cells in 6-well format using Lipofectamine siRNA-Max reagent (Life Technologies 13778150) according to the manufacturer's instructions. Forty-eight hours later, these cells were re-plated into 24-well format for cell death assays, or harvested for western blot analysis of knockdowns.
These constructs were transduced into NIH-3T3 cells using standard protocols for helper-dependent retroviral transduction. Transduced cells were selected for 5 days in 1 μg/ml puromycin, then grown to confluence and sorted twice for homogenous GFP expression. […]

[6] = test system: NIH-3T3 cells expressing RIPK3-2xFv; assay: AP1-induced RIPK3 oligomerization cell death, IncuCyte imaging; type: cell-based, murine; details: compared with RIPK3-1xFv
Excerpt: Consequently, two Fv domains were attached to the C-terminus of RIPK3, creating a RIPK3-2xFv construct, with the goal of promoting AP1-induced crosslinking and oligomerization independent of the RHIM domain. See, FIG. 12A. […] Compare, FIGS. 16A and 15A, respectively. […] Cells expressing this RHIM-deficient RIPK3^ΔC-2xFv construct were nonresponsive to TNF+zVAD, previously reported to be dependent on RIPK1 RHIM/RIPK3 RHIM interactions. See, FIG. 13G. […] See, FIG. 16C and FIG. 16D, respectively. […] See, FIG. 16E. […] See, FIG. 16F.
Cell death assays were carried out using a 2-color IncuCyte Zoom in-incubator imaging system (Essen Biosciences.) Briefly, this system allows fully automated imaging of cells at set intervals in phase contrast as well as both red and green fluorescent channels. Cell death assays were carried out by treating cells with death-inducing compounds in 24 well tissue culture vessels (100,000 cells/well), in the presence of 100 nM of the cell-impermeable DNA binding fluorescent dyes Sytox Green (Life Technologies 57020) or Yoyo-3 (Y3606), which are excluded from healthy cells but rapidly enter dying cells upon membrane permeabilization, in a manner analogous to propidium iodide.
Resulting images were analyzed using the software package supplied with the IncuCyte imager, which allows precise analysis of the number of Sytox Green or Yoyo-3 positive cells present in each image. For each experiment, a minimum of three separate wells were treated with each experimental condition, and a minimum of 4 image fields were assessed per well. Percent cell death was calculated by treating a minimum of three distinct wells in each experiment with 100 nM of the cell permeable fluorescent dye Syto Green (S7559), which allows quantification of the total number of cells present in each field. Dead cell events acquired via Sytox Green or Yoyo-3 staining were divided by this total cell number to yield percent cell death at each timepoint. Error bars represent standard deviation from the mean of a minimum of three independent wells. Each result depicted is representative of at least 4 distinct experiments, each of which contained at least 3 technical replicates.

[7] = test system: RIPK3 necrosome complex (RIPK1, caspase-8); assay: Anti-FLAG immunoprecipitation of necrosome complexes; type: cell-based, murine; details: AP1 30 minutes
Procedure: Immunoprecipitation of necrosome complexes were carried out using rabbit anti-FLAG antibodies, and TruBlot IP reagents (Rockland Immunochemicals) to eliminate non-specific signals from immunoglobulin heavy and light chains. Briefly, cell lines were treated as indicated and lysed in NP40 buffer (30 mM Tris, 150 mM NaCl, and 1% NP40) supplemented with protease inhibitors. Twenty micrograms of each sample were reserved for “input,” while 500 μg of total protein from each sample were immunoprecipitated with 0.5 μg antibody conjugated to 30 μL TruBlot anti-Rabbit IgG beads Immunocomplexes were washed 4 times in NP40 buffer, eluted by boiling, then run on western blot. Western blots were analyzed using standard primary antibodies, but TruBlot anti-Rabbit and anti-Mouse HRP-conjugated 14 secondary antibodies were used. A standard anti-Rat-HRP secondary was used to detect caspase-8.

[8] = serial dilution in (aqueous) culture medium; cited from earlier work
mice [9] = details: mouse, in vivo; cited from earlier work
splenocyte proliferation = details: relative to rapamycin; cited from earlier work

Chain of FKBPs with a single amino acid substitution, Phe36Val (Fv) (P62942 whole entry F37V): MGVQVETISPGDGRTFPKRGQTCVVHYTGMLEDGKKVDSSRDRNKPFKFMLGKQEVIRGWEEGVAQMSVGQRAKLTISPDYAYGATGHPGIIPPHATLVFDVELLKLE
Chain of wild type FKBP (P62942 whole entry): as the sequence (P62942 whole entry F37V) above, with V37F counted along it

In the case of “RIPK3-1xFv: murine RIPK3 fused to a single copy of mutated FKBP (F36V), Fv domain, at the C-terminus”, the “sensitization to necroptosis induced by TNF and zVAD by construct expression” value [1] is reported as “sensitized” and the “RIPK3 complexes formed by construct after dimerizer (AP1) treatment” value (RIPK3 complexes) is reported as “present in a combination of dimers and larger oligomeric complexes”.
For `CC[C@H](C(=O)N1CCCC[C@H]1C(=O)O[C@H](CCc1ccc(OC)c(OC)c1)c1cccc(OCC(=O)NCC(CNC(=O)COc2cccc([C@@H](CCc3ccc(OC)c(OC)c3)OC(=O)[C@@H]3CCCCN3C(=O)[C@@H](CC)c3cc(OC)c(OC)c(OC)c3)c2)CN(C)C)c1)c1cc(OC)c(OC)c(OC)c1` [AP20187], the “lower affinity to the wild type protein” value (wild type FKBP) is listed as 1000 fold, the pharmacokinetic properties [2] is listed as “better pharmacokinetic properties than AP1510” and the affinity [3] is listed as “subnanomolar”. For the same compound, the toxicity to cells (cells) was “non-toxic” and the “doses with maximal effects” value (mice [4]) was 0.5 to 10 mg/kg.
With `CC[C@H](C(=O)N1CCCC[C@H]1C(=O)O[C@H](CCc1ccc(OC)c(OC)c1)c1cccc(OCC(=O)NCC(CNC(=O)COc2cccc([C@@H](CCc3ccc(OC)c(OC)c3)OC(=O)[C@@H]3CCCCN3C(=O)[C@@H](CC)c3cc(OC)c(OC)c(OC)c3)c2)CN(C)C)c1)c1cc(OC)c(OC)c(OC)c1` [AP1] the “RIPK3 activation and necroptosis upon AP1 addition” value [5] was “limited RIPK3 activation and necroptosis”.
In the case of “RIPK3-2xFv: RIPK3 with two Fv domains attached to the C-terminus”, the “RIPK3 complexes formed by construct after dimerizer (AP1) treatment” value (RIPK3 complexes) is reported as “large molecular weight RIPK3 complexes were observed”, the “necroptotic response to AP1” value [6] is reported as “faster and more robust necroptotic response” and the “necrosome formation / interaction with RIPK1 and caspase-8 by construct” value [7] is reported as “interaction with RIPK1 and caspase-8, regardless of the presence of zVAD or Nec1”.
For AP21967, the “highest concentration ensuring complete solubility” value [8] is given as no more than 5 µM, the “non-toxic dose in mice” value (mice [9]) is given as “up to 30 mg/kg” and the “less immunosuppressive than rapamycin” value (splenocyte proliferation) is given as “greater than 1000 fold”. For the same compound, the “non-toxic concentration to cells” value (cells) was “up to 1 μM”.
